The record followed here is patent US20230339890A1, “AMINO ALCOHOL COMPOUNDS AND USES THEREOF” (Kineta, Inc., priority 2020, published 2023).

What is called IC50 is the concentration needed to halve the response being measured.

The target in the assay is Recombinant human CYP51A1 (lanosterol-14a-demethylase) (Homo sapiens (Human), UniProt Q16850). Briefly: Inhibition of CYP51A1, fluorescent substrate BOMCC. It counts as biochemical. To be noted: recombinant human CYP51A1 coexpressed with CYP reductase in bacterial membranes, 8-point concentration-response, read-out: CYP51 IC50. The source says: Method: Recombinant human CYP51A1 (lanosterol-14a-demethylase) enzyme was coexpressed with CYP reductase in bacterial membranes and the fluorescent substrate BOMCC (a nonnatural substrate that causes increases in fluorescence upon CYP51A1-dependent demethylation) was used to obtain 8-point dose concentration-response curves for each compound.
Recombinant human CYP51A1 (lanosterol-14a-demethylase), sequence (Q16850 whole entry): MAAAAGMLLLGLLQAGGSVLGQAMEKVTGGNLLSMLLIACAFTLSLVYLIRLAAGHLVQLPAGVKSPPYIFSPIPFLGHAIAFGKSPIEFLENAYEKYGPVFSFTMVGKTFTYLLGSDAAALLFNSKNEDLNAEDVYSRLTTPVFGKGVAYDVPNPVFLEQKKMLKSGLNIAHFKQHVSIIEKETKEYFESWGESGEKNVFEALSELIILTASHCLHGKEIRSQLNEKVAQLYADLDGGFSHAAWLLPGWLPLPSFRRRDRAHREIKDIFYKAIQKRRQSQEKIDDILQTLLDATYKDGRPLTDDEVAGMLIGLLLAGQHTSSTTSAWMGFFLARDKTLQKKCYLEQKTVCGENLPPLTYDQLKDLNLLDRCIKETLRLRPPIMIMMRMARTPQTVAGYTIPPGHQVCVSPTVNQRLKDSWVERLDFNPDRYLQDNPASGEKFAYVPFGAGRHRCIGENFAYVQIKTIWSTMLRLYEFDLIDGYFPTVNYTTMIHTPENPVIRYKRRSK
For `CCCN(C[C@@H](O)c1cccnc1)C(=O)C(C)c1ccc(C(F)(F)F)nc1` (stereo partly drawn) [compound 132, N-[(2S)-2-hydroxy-2-(3-pyridyl)ethyl]-N-propyl-2-[6-(trifluoromethyl)-3-pyridyl]propanamide], the IC50 is > 1000 nM.
Under `CCN(C[C@@H](O)c1cccnc1)C(=O)Cc1ccc(Cl)c(Cl)c1` [compound 20, 2-(3,4-dichlorophenyl) -N-ethyl-N-[(2S)-2-hydroxy-2-(3-pyridyl)ethyl]ac etamide] stands 100 to 1000 nM.
The value for `COC(=O)N(CCc1ccc(Cl)c(Cl)c1)CC(O)c1cccnc1` (centres unmarked) [compound 83, Methyl N-[2-(3,4-dichlorophenyl)ethyl] -N-[2-hydroxy-2-(3-pyridyl)ethyl]carbam ate] was 100 to 1000 nM; that for `CCCN(CC(O)c1cccnn1)C(=O)Cc1ccc(Cl)c(Cl)c1` (single isomer, unassigned) [compound 35, 2-(3,4-dichlorophenyl)-N-[2-hydroxy-2-pyridazin-3-yl-ethyl]-N-propyl-acetamide] was 100 to 1000 nM; that for `O=C(Cc1ccc(C(F)(F)F)nc1)N(CC1CCC1)CC(O)c1cccnn1` (centres unmarked) [compound 87] was 100 to 1000 nM.
Under `CCCN(CC(O)c1cccnn1)C(=O)Cc1ccc(Cl)c(Cl)c1` (single isomer, unassigned) [compound 36, 2-(3,4-dichlorophenyl)-N-[2-hydroxy-2-pyridazin-3-yl-ethyl]-N-propyl-acetamide] stands > 1000 nM.
With `CCC(=O)N(CCc1ccc2ccccc2c1)CC(O)c1cccnc1` (centres unmarked) [compound 3], the IC50 lay within 100 to 1000 nM.
Under `CCCN(CC(O)c1cccnn1)C(=O)Cc1ccc(C#N)c(Cl)c1` (single isomer, unassigned) [compound 54, 2-(3-chloro-4-cyanophenyl)-N-(2-hydroxy-2-pyridazin-3-yl-ethyl)-N-propyl-acetamide] stands > 1000 nM; under `CCCN(CC(O)c1cnccn1)C(=O)C1Cc2cc(Cl)c(Cl)cc2C1` (single isomer, unassigned) [compound 42, 5,6-dichloro-N-(2-hydroxy-2-pyrazin-2-yl-ethyl)-N-propyl-indane-2-carboxamide], ≤ 100 nM; under `CCCN(C[C@@H](O)c1cccnc1)C(=O)Cc1ccc(F)cn1` [compound 108, 2-(5-fluoro-2-pyridyl)-N-[(2S)-2-hydroxy-2-(3-pyridyl)ethyl]-N-propyl-acetamide], > 1000 nM.
In the case of `CC(C)N(C[C@@H](O)c1cccnc1)C(=O)Cc1ccc(Cl)c(Cl)c1` [compound 18, 2-(3,4-dichlorophenyl) -N-[(2S)-2-hydroxy-2-(3-pyridyl)ethyl]-N-isopropyl-acetamide], the IC50 was ≤ 100 nM.
The value for `CCCN(C[C@@H](O)c1cccnc1)C(=O)Cc1cncnc1` [compound 104, N-[(2S)-2-hydroxy-2-(3-pyridyl)ethyl]-N-propyl-2-pyrimidin-5-yl-acetamide] was > 1000 nM; that for `CCCN(CC(O)c1ccnnc1)C(=O)Cc1ccc(Cl)c(Cl)c1` (centres unmarked) [compound 19] was > 1000 nM; that for `CC(C)(C)OC(=O)NCCCN(C[C@@H](O)c1cccnc1)C(=O)Cc1ccc(C(F)(F)F)nc1` [compound 140, tert-butyl N-[3-[[(2S)-2-hydroxy-2-(3-pyridyl)ethyl]-[2-[6-(trifluoromethyl)-3-pyridyl]acetyl]amino]propyl]carbamate] was ≤ 100 nM.
`CCCN(C[C@@H](O)c1cccnc1)C(=O)Cc1ccc(C)c(Cl)c1` [compound 16, 2-(3-chloro-4-methyl-phenyl)-N-[(2S)-2-hydroxy-2-(3-pyridyl)ethyl]-N-propyl-acetamide]: the IC50 is ≤ 100 nM.
Regarding `CCCN(CC(O)c1cncc(F)c1)C(=O)Cc1ccc(C(F)(F)F)nc1` (centres unmarked) [compound 112, N-[2-(5-fluoro-3-pyridyl)-2-hydroxyethyl]-N-propyl-2-[6-(trifluoromethyl)-3-pyridyl]acetamide], the IC50 is 100 to 1000 nM.
Under `CCCN(CC(O)c1cccnc1)C(=O)Cc1ccc(Cl)cc1F` (centres unmarked) [compound 31, 2-(4-chloro-2-fluoro-phenyl)-N-[2-hydroxy-2-(3-pyridyl)ethyl]-N-propyl-acetamide] stands ≤ 100 nM.
The value for `CCCN(CC(O)c1cccnn1)C(=O)Cc1ccc(C(F)(F)F)nc1` (single isomer, unassigned) [compound 69, N-[2-hydroxy-2-pyridazin-3-yl-ethyl]-N-propyl-2-[6-(trifluoromethyl)-3-pyridyl]acetamide] was ≤ 100 nM; that for `CCCN(C[C@@H](O)c1cccnc1)C(=O)C1Cc2cnc(C(F)(F)F)cc2C1` (stereo partly drawn) [compound 128, N-[(2S)-2-hydroxy-2-(3-pyridyl)ethyl]-N-propyl-3-(trifluoromethyl)-6,7-dihydro-5H-cyclopenta[c]pyridine-6-carboxamide] was ≤ 100 nM.
Under `CCCN(C[C@@H](O)c1cccnc1)C(=O)Cc1ccc(OC(F)(F)F)c(Cl)c1` [compound 21, 2-[3-chloro-4-(trifluoromethoxy)phenyl]-N-[(2S)-2-hydroxy-2-(3-pyridyl)ethyl]-N-propyl-acetamide] stands ≤ 100 nM; under `CC(=O)N1CCC(CN(C[C@@H](O)c2cccnc2)C(=O)Cc2ccc(C(F)(F)F)nc2)CC1` [compound 57, N-[(1-acetyl-4-piperidyl)methyl]-N-[(2S)-2-hydroxy-2-(3-pyridyl)ethyl]-2-[6-(trifluoromethyl)-3-pyridyl]acetamide], > 1000 nM.
Turning to `CCCN(CC(O)c1cncc(F)c1)C(=O)Cc1ccc(Cl)c(Cl)c1` (centres unmarked) [compound 126, 2-(3,4-dichlorophenyl)-N-[2-(5-fluoro-3-pyridyl)-2-hydroxyethyl]-N-propyl-acetamide], the IC50 is 100 to 1000 nM.
Under `CC1(N(CC(O)c2cccnc2)C(=O)Cc2ccc(Cl)c(Cl)c2)CC1` (centres unmarked) [compound 9, 2-(3,4-dichlorophenyl)-N-[2-hydroxy-2-(3-pyridyl)ethyl]-N-(1-methylcyclopropyl)a cetamide] stands 100 to 1000 nM; under `CCCN(C[C@@H](O)c1cccnc1)C(=O)Cc1cccc2ncsc12` [compound 118, 2-(1,3-benzothiazol-7-yl)-N-[(2S)-2-hydroxy-2-(3-pyridyl)ethyl]-N-propyl-acetamide], > 1000 nM; under `CCCN(C[C@@H](O)c1cccnc1)C(=O)Cc1ccnc(C(F)(F)F)c1` [compound 127, N-[(2S)-2-hydroxy-2-(3-pyridyl)ethyl]-N-propyl-2-[2-(trifluoromethyl)-4-pyridyl]acetamide], > 1000 nM.
Under `CCCN(C[C@@H](O)c1cccnc1)C(=O)Cc1ccc(C(F)(F)F)nc1` [compound 17, N-[(2S)-2-hydroxy-2-(3-pyridyl)ethyl]-N-propyl-2-[6-(trifluoromethyl)-3-pyridyl]acetamide] stands ≤ 100 nM; under `Cc1ccncc1C(O)CN(CC1COC1)C(=O)Cc1ccc(C(F)(F)F)nc1` (single isomer, unassigned) [compound 88, N-[2-hydroxy-2-(4-methyl-3-pyridyl)ethyl] -N-(oxetan-3-ylmethyl)-2-[6-(trifluoromethyl)-3-pyridyl]acetamide], ≤ 100 nM; under `CCCN(CC(O)c1cncc(C#N)c1)C(=O)Cc1ccc(Cl)c(Cl)c1` (centres unmarked) [compound 111, N-[2-(5-cyano-3-pyridyl)-2-hydroxyethyl]-2-(3,4-dichlorophenyl)-N-propyl-acetamide], > 1000 nM.
On to `CCCN(CC(O)c1cnccc1OC)C(=O)Cc1ccc(Cl)c(Cl)c1` (centres unmarked) [compound 109, 2-(3,4-dichlorophenyl)-N-[2-hydroxy-2-(4-methoxy-3-pyridyl)ethyl]-N-propyl-acetamide], for which the IC50 was ≤ 100 nM.
As for `O=C(Cc1ccc(C(F)(F)F)nc1)N(C[C@@H](O)c1cccnc1)C1COC1` [compound 78, N-[(2S)-2-hydroxy-2-(3-pyridyl)ethyl]-N-(oxetan-3-yl)-2-[6-(trifluoromethyl)-3-pyridyl]acetamide], the IC50 was in the range of 100 to 1000 nM.
The value for `COC(=O)N(CCc1ccc(C(F)(F)F)nc1)C[C@@H](O)c1cccnc1` [compound 75, Methyl N-[(2S)-2-hydroxy-2-(3-pyridyl)ethyl]-N-[2-[6-(trifluoromethyl)-3-pyridyl]ethyl]carba mate] was > 1000 nM.
The value for `CCCN(C[C@@H](O)c1cccnc1)C(=O)Cc1ccc(Cl)cn1` [compound 14, 2-(5-chloro-2-pyridyl)-N-[(2S)-2-hydroxy-2-(3-pyridyl)ethyl]-N-propyl-acetamide] was > 1000 nM; that for `CCC(=O)N(C[C@@H](O)c1cccnc1)C1Cc2cc(Cl)c(Cl)cc2C1` [compound 22, N-(5,6-dichloroindan-2-yl)-N-[(2S)-2-hydroxy-2-(3-pyridyl)ethyl]propanamide] was 100 to 1000 nM.
Consider `CCCN(CC(O)c1cnccn1)C(=O)C1Cc2cc(Cl)c(Cl)cc2C1` (single isomer, unassigned) [compound 41, 5,6-dichloro-N-(2-hydroxy-2-pyrazin-2-yl-ethyl)-N-propyl-indane-2-carboxamide], for which the IC50 is > 1000 nM.
Under `CC(C)(C)OC(=O)N(CCc1ccc(Cl)c(Cl)c1)CC(O)c1cccnc1` (centres unmarked) [compound 138, Tert-butyl N-[2-(3,4-dichlorophenyl)ethyl] -N-[2-hydroxy-2-(3-pyridyl)ethyl]carbam ate] stands 100 to 1000 nM.
Under `CC(C)(C)OC(=O)NC1CCC(CN(C[C@@H](O)c2cccnc2)C(=O)Cc2ccc(C(F)(F)F)nc2)CC1` (stereo partly drawn) [compound 145, tert-butyl N-[4-[[[(2S)-2-hydroxy-2-(3-pyridyl)ethyl]-[2-[6-(trifluoromethyl)-3-pyridyl]acetyl]amino]methyl]cyclohexyl] carbamate] stands 100 to 1000 nM; under `CC(C)N(C[C@@H](O)c1cccnc1)C(=O)Nc1ccc(Cl)c(Cl)c1` [compound 29, 3-(3,4-dichlorophenyl)-1-[(2S)-2-hydroxy-2-(3-pyridyl)ethyl]-1-isopropyl-urea], > 1000 nM; under `COC(=O)N(CCc1ccc(C(F)(F)F)nc1)CC(O)c1cccnn1` (centres unmarked) [compound 51], > 1000 nM.
